Assay results as given in patent publication EP4268823A1, “COMPOUND FOR TREATING NEUROINFLAMMATION” (Universitätsklinikum Hamburg-Eppendorf, priority 2022, dated 2023).

What was measured:
[1] = biological target: T1, G9a (Mus musculus, UniProt Q9Z148); experiment: H3K9me2 / G9a immunofluorescence staining in primary neuronal cultures; format: cell-based
T1 construct: UNC0642 pre-treated primary neuronal cultures compared to respective controls; endogenous in cells; host or cells: primary mouse cortical neuronal cultures (C57BL/6J embryos)
T1 sequence (Q9Z148 1-1263): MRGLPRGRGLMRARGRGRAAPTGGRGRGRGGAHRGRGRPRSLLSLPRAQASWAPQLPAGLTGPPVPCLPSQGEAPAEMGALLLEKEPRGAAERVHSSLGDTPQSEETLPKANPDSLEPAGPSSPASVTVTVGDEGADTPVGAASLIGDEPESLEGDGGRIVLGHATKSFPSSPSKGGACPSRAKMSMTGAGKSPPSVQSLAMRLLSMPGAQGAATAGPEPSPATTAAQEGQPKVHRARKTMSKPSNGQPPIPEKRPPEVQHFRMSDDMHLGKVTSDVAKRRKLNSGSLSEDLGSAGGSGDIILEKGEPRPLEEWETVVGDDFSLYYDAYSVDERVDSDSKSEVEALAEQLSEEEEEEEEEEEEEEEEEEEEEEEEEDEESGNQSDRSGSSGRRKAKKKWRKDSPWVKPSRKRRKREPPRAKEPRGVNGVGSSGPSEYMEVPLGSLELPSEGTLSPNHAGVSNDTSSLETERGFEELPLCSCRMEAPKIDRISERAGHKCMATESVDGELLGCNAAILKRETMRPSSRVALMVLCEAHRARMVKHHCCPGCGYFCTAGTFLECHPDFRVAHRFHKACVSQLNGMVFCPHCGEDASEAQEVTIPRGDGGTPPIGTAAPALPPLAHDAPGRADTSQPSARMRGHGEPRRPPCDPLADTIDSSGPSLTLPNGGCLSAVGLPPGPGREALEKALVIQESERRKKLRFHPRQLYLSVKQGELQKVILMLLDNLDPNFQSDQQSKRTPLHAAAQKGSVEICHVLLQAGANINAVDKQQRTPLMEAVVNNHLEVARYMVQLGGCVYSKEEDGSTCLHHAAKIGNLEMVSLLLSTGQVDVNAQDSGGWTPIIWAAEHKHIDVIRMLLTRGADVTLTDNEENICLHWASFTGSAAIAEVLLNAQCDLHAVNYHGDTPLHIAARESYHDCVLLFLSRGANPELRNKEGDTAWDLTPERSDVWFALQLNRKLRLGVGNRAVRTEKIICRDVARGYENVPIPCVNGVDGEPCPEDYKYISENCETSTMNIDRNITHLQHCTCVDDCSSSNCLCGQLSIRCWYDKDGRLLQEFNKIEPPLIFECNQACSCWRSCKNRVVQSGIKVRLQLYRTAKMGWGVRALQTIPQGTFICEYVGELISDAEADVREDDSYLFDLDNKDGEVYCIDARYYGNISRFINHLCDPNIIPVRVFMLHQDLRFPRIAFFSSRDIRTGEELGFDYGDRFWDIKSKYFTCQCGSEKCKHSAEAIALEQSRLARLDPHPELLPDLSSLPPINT
Experimental: (§1) For primary cortical cultures pregnant C57BL/6J, or G9afl/fl;Snap25-Cre mice were euthanized. To ensure comparability between genotypes, only embryos from heterozygous breeding's were used. Brainstem tissue of each embryo for genotyping was reserved and cortices were isolated, dissociated and cells were plated at a density of 1 × 10^5 cells per 1 cm^2 on poly-D-lysine-coated wells (5 µM Sigma-Aldrich, cat. no. A-003-M). If not stated otherwise, cells were maintained in neurobasal plus medium (supplemented with B27 plus, penicillin, streptomycin and L-glutamine; Gibco, cat. no. A3582901) at 37°C, 5% CO^2 and a relative humidity of 98%, and treated with 1 µM cytarabine (Sigma-Aldrich, cat. no. BP383) at 1 day in vitro (div) to inhibit glial cell proliferation. If no cytarabine was applied cells were maintained in PNBM medium (supplemented with neural cell survival factor, gentamycin and L-glutamine; Lonza). Throughout, cultures after 14-23 div were used for experiments. G9a inhibitor UNC0642 was used in a concentration of 1 µM and cultures were pre-treated 24 hours before further experimental procedures.
Immunocytochemistry was performed as described previously (15). HiPSC-neurons and mouse neurons were cultivated on 12 mm diameter cover slips or on 96-well plates suited for confocal microscopy, fixed with 4% paraformaldehyde (PFA), incubated in 10% normal donkey's serum (NDS) containing 0.25% Triton X-100, and subsequently immunolabeling was performed. Immunostainings were analyzed with a Zeiss LSM 700 confocal microscope.

[2] = tested on: primary neurons; experiment: Cell death induction, dead neurons with CellTox green reagent; format: cell-based, mouse; conditions: 1 µM UNC0642 pre-treated 24 hours
Experimental: as §1
Primary neurons were subjected to dedicated compounds initiating either apoptosis (stauro-sporine), necroptosis (TNF-α + LCL-161 + Z-VAD-FMK, or shikonin), or ferroptosis (RSL3, or erastin) for 48 h in G9afl/fl;Snap25-Cre cultures, or cultures pre-treated for 24 hours with 1 µM UNC0642. Together with the cell death inducing compounds, CellToxTM Green Cytotoxicity Assay (Promega) was added to primary neurons 1:2000. Before fixation with 4% paraformaldehyde, cells were counterstained with Hoechst […]. Neurons were imaged on a Zeiss LSM 700 confocal microscope using 20× magnification.

[3] = tested on: cyclooxygenase-2 (COX-2); experiment: COX-2 immunostaining after glutamate stimulation; format: cell-based, mouse; conditions: glutamate excitotoxicity ± UNC0642
Experimental: as §1
Immunocytochemistry was performed as described previously (15). […] Immunostainings were analyzed with a Zeiss LSM 700 confocal microscope.

[4] = tested on: primary neuronal cultures; experiment: Cytosolic calcium imaging of glutamate-exposed neuronal cultures; format: cell-based, mouse; conditions: UNC0642 pre-treatment plus ferroptosis inhibitor (ferrostatin-1)
Experimental: as §1
Primary neuronal cultures were seeded on Ibidi 60 µ-Dish Quad (cat. No. 80411) plates. Cultures were infected with an AAV7 containing pAAV-Syn-GCamp6f-WPRE-SV40 (86) (Addgene 100837) at 7-10 div with a 20,000-fold multiplicity of infection (MOI). AAV particles were produced according to the standard procedures of the UKE vector facility. Images were acquired with a confocal LSM 700 laser scanning confocal microscope (Zeiss) every 0.48 seconds with a 20× magnification in an imaging chamber maintaining 37 °C and 5% CO2. Infected cultures were imaged in the respective culture medium. Before applying the indicated chemicals, 5-10 min of baseline activity was first recorded. At the end of the recording, 8 µM ionomycin was applied to induce the maximum cellular calcium response that was used for normalization. For data analysis, mean fluorescence values of every cell were measured using Fiji software (NIH) and normalized to the maximal calcium response after ionomycin challenge. For each cell, mean AUC of the calcium response was calculated using a custom R script.

[5] = primary neuronal cultures, 1 µM UNC0642 pre-treated 24 hours, vs. DMSO

SMILES: COc1cc2c(NC3CCN(C(C)C)CC3)nc(N3CCC(F)(F)CC3)nc2cc1OCCCN1CCCC1 [UNC0642, 2-(4,4-difluoropiperidin-1-yl)-6-methoxy-N-[1-(propan-2-yl)piperidin-4-yl]-7-[3-(pyrrolidin-1-yl)propoxy]quinazolin-4-amine]
- upregulation of H3K9me2 in response to ferroptosis induction ([1]; erastin or RSL3, with UNC0642): effectively prevented
- upregulation of H3K9me2 by hydrogen peroxide treatment ([1]; hydrogen peroxide stimulation, UNC0642 treatment): still able to overcome this effect
- G9a protein level [1, 5]: did not change
- reduction of H3K9me2 signal [1, 5]: 45%
- ferroptosis (dead neurons) induced by RSL3 ([2]; 48 h inducer): substantially rescued
- ferroptosis (dead neurons) induced by erastin ([2]; 48 h inducer): substantially rescued
- necroptosis (dead neurons) ([2]; TNF-α + LCL-161 + Z-VAD-FMK, or shikonin, 48 h): neither apoptosis nor necroptosis was affected
- apoptosis (dead neurons) ([2]; staurosporine 48 h): neither apoptosis nor necroptosis was affected
- induction of COX-2-positive cells [3]: almost completely abolished its induction
- potentiation of rescue effects of ferroptosis inhibition on glutamate-induced calcium overload [4]: did not further potentiate the rescue effects of ferroptosis inhibition
